Reference: patent publication US20230000843A1, “MEDICINAL COGNITIVE TREATMENTS” (ACTINOGEN MEDICAL LIMITED, priority 2019, published 2023)

Key:
healthy elderly subjects [1] = assay: One Card Learning test (visual recognition learning); assay type: in vivo, human
Method: (§1) The test was aimed at assessing if, and to what extent, Xanamem™ 20 mg a day may improve performance in healthy elderly subjects from Baseline (Week 0) to Weeks 2, 4, 6, 8, 10, 12 (End of Treatment) and 16 (Follow-up), as measured by changes in the Cogstate Test Battery. 42 subjects were randomised in which 30 subjects received 20 mg Xanamem™ once a day and 12 subjects received matching placebo once a day.
(§2) For each visit, excluding the Screening visit and safety visits (Week 6 and Week 10), subjects arrived at the study site having fasted for at least 10 hours. The subjects took Xanamem™ at site after all the pre-dose blood samples had been taken. Xanamem™ was taken 30 minutes after the start of a meal. On non-study visit days, the subjects took Xanamem™ at the same time each morning with food (30 minutes after the start of the meal).
(§3) One capsule of Xanamem™, or the matching placebo, was administered orally with approximately 200 mL of warm water once a day and with food in the morning, to the subjects from Baseline (Week 0) to End of Treatment (Week 12) for a total of 12 weeks.
To assess the efficacy of Xanamem™ 20 mg once a day in improving cognitive ability in the subjects, the Cogstate Test Battery of the subjects were checked at Baseline (Week 0), Weeks 2, 4, and 8, Week 12 (End of Treatment) and Week 16 (Follow-up). […]

healthy elderly subjects [2] = assay: Cogstate Test Battery overall: impairment of cognition; assay type: in vivo, human; settings: 20 mg compared to placebo over 12 weeks
Method: as §1
(§4) To assess the efficacy of Xanamem™ 20 mg once a day in improving cognitive ability in the subjects, the Cogstate Test Battery of the subjects were checked at Baseline (Week 0), Weeks 2, 4, and 8, Week 12 (End of Treatment) and Week 16 (Follow-up).
The Cogstate Test Battery included the following tests: detection test, identification test, one card learning test, one back working memory test, and the continuous paired associate learning test (CPAL; paired associate learning).

healthy elderly subjects [3] = assay: Cogstate Identification test (choice reaction time, visual attention); assay type: in vivo, human
Method: as §1, §2
(§5) One capsule of Xanamem™, or the matching placebo, was administered orally with approximately 200 mL of warm water once a day and with food in the morning, to the subjects from Baseline (Week 0) to End of Treatment (Week 12) for a total of 12 weeks. […]
In this test an event (a card turning face up) occurred in the centre of the computer screen and the subject decided “YES” or “NO” as to whether this event met a predefined and unchanging criterion (i.e. is the color of the card red?). The software measured the speed and accuracy of each response.

healthy elderly subjects [4] = assay: Cogstate One Back working memory test; assay type: in vivo, human
Method: as §1, §2, §5
The Cogstate One Back memory test is a valid measure of working memory. […] The software measured the speed and accuracy of each response.

[5] = Plasma concentrations and pharmacokinetics; assay type: in vivo, human
Method: as §1, §2, §3
The mean Xanamem™ plasma concentration at 3-5 hours after the first dose of the study was 169 ng/mL. […] The mean trough concentration at Weeks 2, 4, and 8, was 89, 73, and 78 ng/mL, and the mean 3 to 5 hour concentration was 353. 331, and 330 ng/mL for weeks 2, 4, and 8, respectively.
Only body weight was identified as a covariate impacting PK in this model, confirming that the PK of Xanamem™ are consistent between healthy volunteers, patients with Alzheimer's Disease, and healthy elderly subjects.

healthy elderly subjects [6] = assay: Continuous Paired Associate Learning-Delayed test; assay type: in vivo, human; settings: 20 mg once a day orally, 12 weeks, compared to placebo group
Method: as §1, §2, §5
(§6) Finding the correct location for all patterns in the set was defined as a learning trial. […] The software recorded each move as an error or as a correct move.

healthy elderly subjects [7] = assay: Continuous Paired Associate Learning test (CPAL); assay type: in vivo, human
Method: as §1, §2, §3, §4
The Continuous Paired Associate Learning test is a measure of visual associate memory and uses a well-validated paired associate learning paradigm in which the subject must learn the locations of a number of amoeba-like shapes on the computer screen.
Beneath all but two of the blue spheres were amoeboid shapes, one of which matched the central display; the two remaining circles were distractors. In the exposure phase of the test all of the to-be-remembered pattern-location associations were presented on the computer screen simultaneously.
After a five second delay, a pattern was shown in the central location and this signals that the subject should touch the location in the periphery that contained the same pattern. This process continued until the participant had acknowledged all of the pattern-location associations. The learning phase began with the same test display presented during the exposure phase except that now all of the peripheral locations were shown as blue spheres. One of the patterns presented in the exposure phase was presented in the centre location. With the presentation of this pattern, the subject was required to select the peripheral location where an identical pattern was hidden beneath the blue sphere. […]
as §6

[8] = CSF and corresponding plasma concentrations at the EOT visit; assay type: in vivo; settings: human, oral, 20 mg, four CSF samples at the EOT visit, read-out: ratio of CSF to plasma concentrations
Method: The ratio of Xanamem™ CSF to plasma concentrations in the four CSF samples taken at the EOT visit ranged from 0.028 to 0.421; the range of CSF concentrations was 3.48 to 6.25 ng/mL, compared to 11.6 to 126 ng/mL for the corresponding plasma concentrations.

healthy elderly subjects [9] = assay: Cogstate Detection test (simple reaction time, psychomotor function); assay type: in vivo, human
Method: as §1, §2, §5
For this test, the subject pressed a “YES” response key as soon as they detected an event (a card turning face up presented in the centre of the computer screen). The software measured the response time to detect each event.

[10] = 20 mg once a day orally, 12 weeks, compared to placebo group
[11] = 12 weeks treatment, 20 mg versus placebo, statistically significant

mean 3 to 5 hour plasma concentration ([5]; Week 2, 20 mg once a day): 353 ng/mL
mean trough plasma concentration ([5]; Week 2, 20 mg once a day): 89 ng/mL
mean 3 to 5 hour plasma concentration ([5]; Week 4, 20 mg once a day): 331 ng/mL
mean trough plasma concentration ([5]; Week 4, 20 mg once a day): 73 ng/mL
mean 3 to 5 hour plasma concentration ([5]; Week 8, 20 mg once a day): 330 ng/mL
mean trough plasma concentration ([5]; Week 8, 20 mg once a day): 78 ng/mL
mean plasma concentration at 3-5 hours ([5]; after the first dose, 20 mg oral with food): 169 ng/mL
steady state of plasma concentrations ([5]; trough and 3-5 hour concentrations consistent across Weeks 2, 4 and 8): steady state had been achieved by Week 2
Kp [8]: 0.028 to 0.421
Structure (SMILES): O=C(c1csc(-c2cn[nH]c2)c1)N1[C@@H]2CC[C@H]1C[C@](O)(c1ncccn1)C2 [Xanamem™, (5-(1H-Pyrazol-4-yl)thiophen-3-yl)(3-hydroxy-3-(pyrimidin-2-yl)-8-azabicyclo[3.2.1]octan-8-yl)methanone]
visual learning (accuracy of performance, arcsine transformation of proportion of correct responses) (healthy elderly subjects [1]; 20 mg once a day orally, week 8, compared to placebo group): improved visual learning
effect size (ES) data for One Card Learning outcomes (healthy elderly subjects [1]; 20 mg versus placebo, overall): tended to favour Xanamem™ 20 mg
impairment of cognition associated with treatment (healthy elderly subjects [2]): no systemic evidence of impairment in any respect of cognition
visual attention (speed of performance, log10 transformed reaction times for correct responses) (healthy elderly subjects [3]; [10]): improved visual attention
effect size, speed of performance on Identification test (attention) (healthy elderly subjects [3]; [11]): > 0.6
working memory (speed of performance, log10 transformed reaction times for correct responses) (healthy elderly subjects [4]; [10]): improved working memory
effect size, speed of performance on One-back test (working memory) (healthy elderly subjects [4]; [11]): > 0.6
pharmacokinetic model ([5]; only body weight identified as covariate): one-compartment model with first-order absorption and elimination
Hippocampal dependent learning and memory (number of errors remembering the associations after a delay) (healthy elderly subjects [6]): improved Hippocampal dependent learning and memory
Hippocampal dependent learning and memory (number of errors remembering the associations) (healthy elderly subjects [7]; [10]): improved Hippocampal dependent learning and memory
differences on Continuous Paired Associates Learning Test outcomes (healthy elderly subjects [7]; 20 mg versus placebo): statistically significant differences in data were in favour of Xanamem™ 20 mg
effect size difference on Continuous Paired Associates Learning Test, sensitivity analysis (healthy elderly subjects [7]; 20 mg versus placebo, Week 4): favoured Xanamem™ 20 mg
effect size (ES) data for Continuous Paired Associates outcomes (healthy elderly subjects [7]; 20 mg versus placebo, overall): tended to favour Xanamem™ 20 mg
psychomotor function (speed of performance, log10 transformed reaction times for correct responses) (healthy elderly subjects [9]; [10]): improved psychomotor function
effect on Detection test (psychomotor speed) (healthy elderly subjects [9]; 20 mg versus placebo, by time point): evident at week 8
